Literature values as cited in patent US20050147578A1, “Topical cosmetic composition having a natural plant active ingredient and method of using same” (Avon Products, Inc., priority 2001, published 2005).

System: Heat shock 70 protein

In the case of `O=[As]O` [Sodium arsenite, sodium arsenite], the “production of heat shock protein (known effect of positive control)” value is listed as “stimulate the production of heat shock protein”.
